Reference: patent publication US20230404969A1, “COMPOSITIONS AND METHOD FOR EFFECTIVE MANAGEMENT OF PERITONITIS” (priority 2022, published 2023)

Tested on: IL-6
Assay: Cytometric Bead Array of peritoneal fluid, chronic zymosan peritonitis: IL-6
Format: in vivo, mouse
Settings: 2 mg/kg, vs Zymosan control
Procedure: Peritoneal inflammation was induced by Zymosan A (Sigma Chemical) (Masashi et al. Zymosan, but Not Lipopolysaccharide, Triggers Severe and Progressive Peritoneal Injury Accompanied by complement Activation in a Rat Peritonitis Model) was prepared freshly in sterile, 0.9% w/v saline, and 0.5 ml was injected i.p. from day 0 to Day 5. The lymphocyte population in the peripheral blood was determined with a flow cytometer. Cells were phenotyped by flow cytometry with the following primary antibodies: CD4 (FITC) and CD8 (PE). Cells were gated broadly on all live lymphocyte cells, with only debris and multiple cell clusters being excluded. Analysis of mean fluorescence intensity was done and percentage cell population was evaluated. […]
The Cytometric Bead Array (Mouse Inflammation kit) was used to study cytokines in peritoneal fluid. […] Briefly, a mixture of 6 capture bead populations (50 μl) with distinct fluorescence intensities (detected in FL3) coated with antibodies specific for the above cytokines was mixed with each sample/standard (50 μl). […] Following acquisition of data by two colour cytometric analysis, the sample results were analysed using CBA software (BD Biosciences). […] Individual cytokine concentration ratios were indicated by their fluorescent intensities and was determined by interpolation from the corresponding standard curve.

CC1=C(C)C(=O)O[C@@H]([C@@H](C)[C@@]2(O)CC[C@H]3[C@@H]4[C@@H]5O[C@@H]5[C@@]5(O)CC=CC(=O)[C@]5(C)[C@H]4CC[C@@]32C)C1 [Withanone]
Inhibition of IL-6: 61%
